Source: ChEMBL document CHEMBL1130806, “Enhanced potency of perfluorinated thalidomide derivatives for inhibition of LPS-induced tumor necrosis factor-alpha production is associated with a change of mechanism of action” (Bioorg Med Chem Lett, 1998)

Columns and labels:
Format in all cases: functional, cell-based
THP-1 = experiment: Inhibition of LPS-induced Tumor necrosis factor-alpha production (TNF-alpha) in THP-1 cells; conditions: Homo sapiens
[1] = Compound was tested for the inhibition of production of IL-1 beta in human monocytes
[2] = Compound was tested for the inhibition of production of IL-6 in human monocytes

IC50 [1] [nM]	IC50 [2] [nM]	Compound	IC50 (THP-1) [nM]
–	–	C[C@@H](c1ccccc1)N1C(=O)c2c(F)c(F)c(F)c(F)c2C1=O	367
–	–	C[C@]1(N2C(=O)c3c(F)c(F)c(F)c(F)c3C2=O)CCC(=O)NC1=O	443
–	–	C[C@@]1(N2C(=O)c3c(F)c(F)c(F)c(F)c3C2=O)CCC(=O)NC1=O	494
–	–	COC(=O)C[C@H](c1ccc(OC)c(OC)c1)N1C(=O)c2c(F)c(F)c(F)c(F)c2C1=O	250
–	–	CN1C(=O)c2c(F)c(F)c(F)c(F)c2C1=O	413
400	700	O=C1CCC(N2C(=O)c3c(F)c(F)c(F)c(F)c3C2=O)C(=O)N1 (stereo unspecified)	490
–	–	COC(=O)C[C@@H](c1ccc(OC)c(OC)c1)N1C(=O)c2c(F)c(F)c(F)c(F)c2C1=O	313
–	–	C[C@H](c1ccccc1)N1C(=O)c2c(F)c(F)c(F)c(F)c2C1=O	434
–	–	O=C1c2c(F)c(F)c(F)c(F)c2C(=O)N1c1ccccc1	425
–	–	CC(c1ccccc1)N1C(=O)c2c(F)c(F)c(F)c(F)c2C1=O (racemic)	415
–	–	CC1(N2C(=O)c3c(F)c(F)c(F)c(F)c3C2=O)CCC(=O)NC1=O (racemic)	378
400	300	COC(=O)CC(c1ccc(OC)c(OC)c1)N1C(=O)c2c(F)c(F)c(F)c(F)c2C1=O (racemic)	249
